Reference: patent publication US7888523B2, “Preparation of platinum(II) complexes” (Platco Technologies (Proprietary) Limited, priority 2004, dated 2011)

Assays:
colon cancer cells = assay: Anticancer testing, inhibition of colon cancer cells; assay type: cell-based; details: for inhibition on colon cells: medium containing 10 mM glutathione
Procedure: (§1) Anticancer testing on the halogenoplatinum(II) complex of Example 8 was performed and compared with cisplatin. […] The corresponding values for cisplatin are 85.6% and 93.2%. The corresponding data on cervical cancer cells are 88.5 and 95.9% at 10 and 100 μM solutions. The corresponding values for cisplatin are 85.4 and 95% respectively. A further study in which 100 μM solutions were used in a medium containing 10 mM glutathione, the halogenoplatinum(II) complex performed even better, viz.

breast cancer cells = assay: Anticancer testing, inhibition of breast cancer cells; assay type: cell-based; details: 100 μM solution, medium containing 10 mM glutathione
Procedure: as §1

cervical cancer cells = assay: Anticancer testing, inhibition of cervical cancer cells; assay type: cell-based; details: for inhibition on cervical cancer cells: medium containing 10 mM glutathione
Procedure: as §1

[1] = Anti-cancer properties (test not specified); details: statement in words, no test details

CSCc1nccn1C.[Cl][Pt][Cl] [Pt(mmtei)Cl2, bis-chloro-(1-methyl-2-methylthiomethyl-imidazole)platinum(II)]
percentage inhibition on colon cancer cells (colon cancer cells; 10 μM solution): 92.8%
percentage inhibition on colon cancer cells (colon cancer cells; 100 μM solution): 97.0%
inhibition on colon cells (colon cancer cells; 100 μM solution): 98.2%
inhibition on breast cancer cells (breast cancer cells): 66.1%
percentage inhibition on cervical cancer cells (cervical cancer cells; 10 μM solution): 88.5%
percentage inhibition on cervical cancer cells (cervical cancer cells; 100 μM solution): 95.9%
inhibition on cervical cancer cells (cervical cancer cells; 100 μM solution): 99.3%
anti-cancer properties [1]: exceptional anti-cancer properties

N.N.[Cl][Pt][Cl] [cisplatin, reference compound]
percentage inhibition on colon cancer cells (colon cancer cells; 10 μM solution): 85.6%
percentage inhibition on colon cancer cells (colon cancer cells; 100 μM solution): 93.2%
inhibition on colon cells (colon cancer cells; 100 μM solution): 48.0%
inhibition on breast cancer cells (breast cancer cells): 14%
percentage inhibition on cervical cancer cells (cervical cancer cells; 100 μM solution): 95%
inhibition on cervical cancer cells (cervical cancer cells; 100 μM solution): 58.6%
